From ChEMBL document CHEMBL5365464, “Structure-Based Optimization of the Third Generation Type II Macrocycle TRK Inhibitors with Improved Activity against Solvent-Front, xDFG, and Gatekeeper Mutations” (J Med Chem, 2023)

What was measured:
[1] = tested on: BaF3; assay: Antiproliferative activity against mouse BaF3 cells harbouring ETV6-NTRK3 fusion protein incubated for 3 days by CCK8 method; conditions: BaF3, 72 h
[2] = target: High affinity nerve growth factor receptor (Homo sapiens, UniProt P04629); assay: Inhibition of N-terminal hexa his tagged TRKA (485 to 795 residues) (unknown origin) expressed in baculovirus expression system Sf9 cells using Ser/Thr 06 as peptide substrate incubated for 1 hr in presence of ATP by FRET based Z-LYTE assay
[3] = tested on: BaF3; assay: Antiproliferative activity against mouse BaF3 cells harbouring CD74-NTRK1 G595R mutant fusion protein incubated for 3 days by CCK8 method; type: functional, cell-based; conditions: BaF3, 72 h
[4] = target: NT-3 growth factor receptor (Homo sapiens, UniProt Q16288); assay: Inhibition of TRKC (unknown origin) using Ser/Thr 06 as peptide substrate incubated for 1 hr in presence of ATP by FRET based Z-LYTE assay
[5] = tested on: BaF3; assay: Antiproliferative activity against mouse BaF3 cells harbouring CD74-NTRK1 fusion protein incubated for 3 days by CCK8 method; conditions: BaF3, 72 h
[6] = target: High affinity nerve growth factor receptor (Homo sapiens, UniProt P04629, G667C); assay: Inhibition of TRKA G667C mutant (unknown origin) expressed in baculovirus expression system Sf9 cells using Ser/Thr 06 as peptide substrate incubated for 1 hr in presence of ATP by FRET based Z-LYTE assay
[7] = tested on: BaF3; assay: cells; conditions: Mus musculus, BaF3, 72 h
[8] = target: High affinity nerve growth factor receptor (Homo sapiens, UniProt P04629, G595R); assay: Inhibition of TRKA G595R mutant (unknown origin) expressed in baculovirus expression system Sf9 cells using Ser/Thr 06 as peptide substrate incubated for 1 hr in presence of ATP by FRET based Z-LYTE assay
[9] = tested on: BaF3; assay: Antiproliferative activity against mouse BaF3 cells harbouring CD74-[…] mutant fusion protein incubated for 3 days by CCK8 method; type: functional, cell-based; conditions: BaF3, 72 h
[10] = tested on: BaF3; assay: Antiproliferative activity against mouse BaF3 cells harbouring TRKA-F589L fusion protein incubated for 3 days by CCK8 method; conditions: BaF3, 72 h
[11] = tested on: BaF3; assay: Antiproliferative activity against mouse BaF3 cells incubated for 3 days by CCK8 method; conditions: BaF3, 72 h
[12] = tested on: BaF3; assay: Antiproliferative activity against mouse BaF3 cells harbouring ETV6-TRKC F617L mutant incubated for 3 days by CCK8 method; conditions: BaF3, 72 h
[13] = tested on: BaF3; assay: Antiproliferative activity against mouse BaF3 cells harbouring ETV6-TRKB G639R mutant incubated for 3 days by CCK8 method; conditions: BaF3, 72 h
[14] = tested on: BaF3; assay: Antiproliferative activity against mouse BaF3 cells harbouring ETV6-TRKB G709C mutant incubated for 3 days by CCK8 method; conditions: BaF3, 72 h
[15] = tested on: BaF3; assay: Antiproliferative activity against mouse BaF3 cells harbouring wild type ETV6-TRKB incubated for 3 days by CCK8 method; conditions: BaF3, 72 h
[16] = tested on: BaF3; assay: Antiproliferative activity against mouse BaF3 cells harbouring ETV6-TRKC G623E mutant incubated for 3 days by CCK8 method; conditions: BaF3, 72 h
[17] = tested on: BaF3; assay: Antiproliferative activity against mouse BaF3 cells harbouring ETV6-TRKC G623R mutant incubated for 3 days by CCK8 method; conditions: BaF3, 72 h
[18] = tested on: BaF3; assay: Antiproliferative activity against mouse BaF3 cells harbouring ETV6-TRKC G6968 mutant incubated for 3 days by CCK8 method; conditions: BaF3, 72 h
[19] = tested on: BaF3; assay: Antiproliferative activity against mouse BaF3 cells harbouring CD74-TRKA G667A mutant incubated for 3 days by CCK8 method; conditions: BaF3, 72 h
[20] = tested on: BaF3; assay: Antiproliferative activity against mouse BaF3 cells harbouring ETV6-TRKC V601M mutant incubated for 3 days by CCK8 method; conditions: BaF3, 72 h
[21] = tested on: BaF3; assay: cells; conditions: Mus musculus, BaF3, 72 h; remark: listed apart in the source
[22] = tested on: BaF3; assay: Antiproliferative activity against mouse BaF3 cells harbouring ETV6-TRKB F633L mutant incubated for 3 days by CCK8 method; conditions: BaF3, 72 h
[23] = tested on: BaF3; assay: Antiproliferative activity against mouse BaF3 cells harbouring ETV6-TRKB V617M mutant incubated for 3 days by CCK8 method; conditions: BaF3, 72 h
[24] = tested on: BaF3; assay: cells; conditions: Mus musculus, BaF3, 72 h; remark: listed apart in the source
[25] = tested on: BaF3; assay: Antiproliferative activity against mouse BaF3 cells harbouring ETV6-TRKC G696A mutant incubated for 3 days by CCK8 method; conditions: BaF3, 72 h
[26] = tested on: BaF3; assay: Antiproliferative activity against mouse BaF3 cells harbouring CD74-TRKA G6678 mutant incubated for 3 days by CCK8 method; conditions: BaF3, 72 h
[27] = tested on: BaF3; assay: Antiproliferative activity against mouse BaF3 cells harbouring ETV6-TRKC G696C mutant incubated for 3 days by CCK8 method; conditions: BaF3, 72 h

Chain of High affinity nerve growth factor receptor (Homo sapiens, UniProt P04629, G667C) (P04629 33-796 G667C limits assumed): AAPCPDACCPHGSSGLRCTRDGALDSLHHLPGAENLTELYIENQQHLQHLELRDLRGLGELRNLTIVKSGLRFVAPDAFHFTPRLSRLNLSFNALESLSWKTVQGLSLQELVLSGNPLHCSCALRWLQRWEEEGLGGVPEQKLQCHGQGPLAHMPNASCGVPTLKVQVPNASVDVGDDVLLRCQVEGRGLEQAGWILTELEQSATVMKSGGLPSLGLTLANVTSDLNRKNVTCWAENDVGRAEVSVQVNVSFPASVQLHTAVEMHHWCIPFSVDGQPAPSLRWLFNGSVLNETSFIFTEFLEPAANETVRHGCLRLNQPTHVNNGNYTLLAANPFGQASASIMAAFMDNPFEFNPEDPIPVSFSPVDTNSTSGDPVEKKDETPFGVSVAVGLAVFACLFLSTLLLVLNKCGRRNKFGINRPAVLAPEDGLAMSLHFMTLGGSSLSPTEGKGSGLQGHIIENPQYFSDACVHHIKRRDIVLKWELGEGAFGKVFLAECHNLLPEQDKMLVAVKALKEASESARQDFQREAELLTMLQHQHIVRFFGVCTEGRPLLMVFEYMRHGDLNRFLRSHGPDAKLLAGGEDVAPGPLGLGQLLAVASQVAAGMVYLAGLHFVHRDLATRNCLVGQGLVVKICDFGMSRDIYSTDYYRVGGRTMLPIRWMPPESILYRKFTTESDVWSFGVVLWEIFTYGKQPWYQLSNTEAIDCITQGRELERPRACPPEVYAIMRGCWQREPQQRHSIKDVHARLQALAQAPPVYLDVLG
Chain of High affinity nerve growth factor receptor (Homo sapiens, UniProt P04629, G595R) (P04629 33-796 G595R limits assumed): as the sequence (P04629 33-796 G667C limits assumed) above, with G563R, C635G counted along it
Chain of NT-3 growth factor receptor (Q16288 whole entry, the tested form may be a part): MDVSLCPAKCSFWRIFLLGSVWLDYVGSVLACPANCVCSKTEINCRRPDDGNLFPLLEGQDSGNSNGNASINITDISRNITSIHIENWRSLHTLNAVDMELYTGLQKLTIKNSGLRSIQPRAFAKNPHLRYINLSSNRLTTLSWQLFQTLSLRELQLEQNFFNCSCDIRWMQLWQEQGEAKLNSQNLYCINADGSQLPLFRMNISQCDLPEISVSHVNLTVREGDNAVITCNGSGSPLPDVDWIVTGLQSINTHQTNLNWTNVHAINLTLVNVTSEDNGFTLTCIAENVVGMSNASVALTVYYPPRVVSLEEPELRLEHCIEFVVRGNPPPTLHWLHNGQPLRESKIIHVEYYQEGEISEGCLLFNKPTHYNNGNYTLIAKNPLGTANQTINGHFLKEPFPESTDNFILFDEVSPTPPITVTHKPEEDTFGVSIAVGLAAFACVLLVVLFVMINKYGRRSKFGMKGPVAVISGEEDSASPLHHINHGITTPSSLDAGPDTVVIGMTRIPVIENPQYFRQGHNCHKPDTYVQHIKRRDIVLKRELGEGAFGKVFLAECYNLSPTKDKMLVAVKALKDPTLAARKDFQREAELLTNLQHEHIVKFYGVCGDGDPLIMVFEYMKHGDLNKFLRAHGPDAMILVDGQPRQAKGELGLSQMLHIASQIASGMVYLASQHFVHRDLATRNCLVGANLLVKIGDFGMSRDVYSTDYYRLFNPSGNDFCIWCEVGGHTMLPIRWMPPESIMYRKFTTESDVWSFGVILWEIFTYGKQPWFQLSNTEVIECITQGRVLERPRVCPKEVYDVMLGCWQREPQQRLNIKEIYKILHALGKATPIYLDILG
Chain of High affinity nerve growth factor receptor (Homo sapiens, UniProt P04629) (P04629 whole entry, the tested form may be a part): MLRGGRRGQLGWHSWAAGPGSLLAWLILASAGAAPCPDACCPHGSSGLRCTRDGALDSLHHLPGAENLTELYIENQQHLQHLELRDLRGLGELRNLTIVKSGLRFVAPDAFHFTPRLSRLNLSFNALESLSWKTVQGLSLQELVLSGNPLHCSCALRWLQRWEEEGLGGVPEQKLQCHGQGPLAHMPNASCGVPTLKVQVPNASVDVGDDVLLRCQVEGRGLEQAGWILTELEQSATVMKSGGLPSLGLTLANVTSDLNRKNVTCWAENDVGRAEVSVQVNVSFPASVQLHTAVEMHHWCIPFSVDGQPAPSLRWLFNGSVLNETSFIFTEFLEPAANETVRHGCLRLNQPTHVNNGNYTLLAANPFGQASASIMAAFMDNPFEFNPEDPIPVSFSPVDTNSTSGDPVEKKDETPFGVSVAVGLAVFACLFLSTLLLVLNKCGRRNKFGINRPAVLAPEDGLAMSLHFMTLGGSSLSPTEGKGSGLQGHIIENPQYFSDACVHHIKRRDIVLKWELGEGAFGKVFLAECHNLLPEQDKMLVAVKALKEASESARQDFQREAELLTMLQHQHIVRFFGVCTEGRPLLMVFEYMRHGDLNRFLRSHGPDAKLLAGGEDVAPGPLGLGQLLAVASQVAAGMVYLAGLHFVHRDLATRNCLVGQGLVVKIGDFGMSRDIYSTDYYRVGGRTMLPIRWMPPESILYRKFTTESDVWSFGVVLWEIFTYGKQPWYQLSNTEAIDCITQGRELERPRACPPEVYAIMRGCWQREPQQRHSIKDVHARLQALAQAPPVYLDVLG

## Cc1cn(-c2cc(NC(=O)c3cc4cc(c3C)C#Cc3cnc5ccc(nn35)NCCN(C)C(=O)CCCCO4)cc(C(F)(F)F)c2)cn1
[1]
  IC50: 17.1 nM
[2]
  IC50: 17.4 nM
[3]
  IC50: 172 nM
[4]
  IC50: 5.95 nM
[5]
  IC50: 33.7 nM
[6]
  IC50: 7.47 nM
[7]
  IC50: 5.51 nM
[8]
  IC50: 124 nM

## Cc1c2cc(cc1C(=O)Nc1cc(Cl)cc(C(F)(F)F)c1)OCCCCCCCNC(=O)c1ccc3ncc(n3n1)C#C2
[2]
  IC50: 39.8 nM
[6]
  IC50: 8.08 nM
[8]
  IC50: > 1000 nM

## Cc1c2cc(cc1NC(=O)Nc1ccc(Cl)c(C(F)(F)F)c1)OCCCCCCCNC(=O)c1ccc3ncc(n3n1)C#C2
[4]
  IC50: 42.4 nM

## Cc1cn(-c2cc(NC(=O)c3cc4cc(c3C)C#Cc3cnc5ccc(nn35)C(=O)NCCCCCCO4)cc(C(F)(F)F)c2)cn1
[1]
  IC50: 541 nM
[2]
  IC50: 51.5 nM
[4]
  IC50: 9.45 nM
[5]
  IC50: 416 nM
[6]
  IC50: 12.2 nM
[7]
  IC50: 17.2 nM
[8]
  IC50: 562 nM

## Cc1c2cc(cc1C(=O)Nc1cc(C(C)(C)C)nn1-c1ccc(Cl)cc1)OCCCCCCCNC(=O)c1ccc3ncc(n3n1)C#C2
[1]
  IC50: 70.2 nM
[2]
  IC50: 164 nM
[4]
  IC50: 13.5 nM
[5]
  IC50: 103 nM
[6]
  IC50: 14.6 nM
[7]
  IC50: 10.2 nM
[8]
  IC50: > 1000 nM

## Cc1c2cc(cc1C(=O)Nc1cc(CN3CCN(C)CC3)cc(C(C)C)c1)OCCCCCCCNC(=O)c1ccc3ncc(n3n1)C#C2
[1]
  IC50: 104 nM
[9]
  IC50: 18.9 nM
[10]
  IC50: 32.7 nM
[2]
  IC50: 7.85 nM
[3]
  IC50: 42.3 nM
[4]
  IC50: 2.83 nM
[5]
  IC50: 20.5 nM
[6]
  IC50: 16.8 nM
[7]
  IC50: 3.85 nM
[8]
  IC50: 10.7 nM

## Cc1c2cc(cc1C(=O)Nc1cc(N3CCC(N4CCOCC4)CC3)cc(C(F)(F)F)c1)OCCCCCCCNC(=O)c1ccc3ncc(n3n1)C#C2
[1]
  IC50: 29.5 nM
[10]
  IC50: > 1000 nM
[2]
  IC50: 26.1 nM
[3]
  IC50: 67.7 nM
[4]
  IC50: 8.51 nM
[5]
  IC50: 51.1 nM
[6]
  IC50: 3.35 nM
[7]
  IC50: 3.78 nM
[8]
  IC50: 109 nM

## Cc1c2cc(cc1C(=O)Nc1cc(CN3CCCN(C)CC3)cc(C(F)(F)F)c1)OCCCCCCCNC(=O)c1ccc3ncc(n3n1)C#C2
[1]
  IC50: 48.4 nM
[9]
  IC50: 48.1 nM
[10]
  IC50: 8.68 nM
[2]
  IC50: 10.2 nM
[3]
  IC50: 48.5 nM
[4]
  IC50: 4.05 nM
[5]
  IC50: 6.74 nM
[6]
  IC50: 2.79 nM
[7]
  IC50: 1.26 nM
[8]
  IC50: 39 nM

## Cc1c2cc(cc1C(=O)Nc1ccc(CN3CCN(C)CC3)c(C(F)(F)F)c1)OCCCCCCCNC(=O)c1ccc3ncc(n3n1)C#C2
[1]
  IC50: 3030 nM
[2]
  IC50: 15.1 nM
[4]
  IC50: 11.4 nM
[5]
  IC50: 32.1 nM
[6]
  IC50: 3.55 nM
[7]
  IC50: 2.25 nM
[8]
  IC50: > 1000 nM

## Cc1c2cc(cc1C(=O)Nc1cc(CN3CCN(C)CC3)cc(C(F)(F)F)c1)OCCCCCCCNC(=O)c1ccc3ncc(n3n1)C#C2
[2]
  IC50: 15.7 nM
[6]
  IC50: 3.18 nM
[8]
  IC50: 54.8 nM

## Cc1cn(-c2cc(NC(=O)c3cc4cc(c3C)C#Cc3cnc5ccc(nn35)NCCC(=O)N(C)CCCCO4)cc(C(F)(F)F)c2)cn1
[2]
  IC50: 21.1 nM
[6]
  IC50: 5.83 nM
[8]
  IC50: 91.8 nM

## Cc1cn(-c2cc(NC(=O)c3cc4cc(c3C)C#Cc3cnc5ccc(nn35)NCCNC(=O)CCCCO4)cc(C(F)(F)F)c2)cn1
[1]
  IC50: 202 nM
[2]
  IC50: 24.8 nM
[3]
  IC50: > 1000 nM
[4]
  IC50: 7.06 nM
[5]
  IC50: 271 nM
[6]
  IC50: 8.21 nM
[7]
  IC50: 40.9 nM
[8]
  IC50: > 1000 nM

## Cc1c2cc(cc1C(=O)Nc1cc(CN3CCN(C)CC3)cc(C(C)(C)C)c1)OCCCCCCCNC(=O)c1ccc3ncc(n3n1)C#C2
[1]
  IC50: 161 nM
[9]
  IC50: 12.2 nM
[10]
  IC50: 45.4 nM
[2]
  IC50: 19 nM
[3]
  IC50: 65.6 nM
[4]
  IC50: 5.22 nM
[5]
  IC50: 34.5 nM
[6]
  IC50: 3.06 nM
[7]
  IC50: 5.96 nM
[8]
  IC50: 30.6 nM

## Cc1cn(-c2cc(NC(=O)c3cc4cc(c3C)C#Cc3cnc5ccc(nn35)C(=O)NCCCCCO4)cc(C(F)(F)F)c2)cn1
[1]
  IC50: 140 nM
[2]
  IC50: 58.1 nM
[4]
  IC50: 20.3 nM
[5]
  IC50: 134 nM
[6]
  IC50: 124 nM
[7]
  IC50: 8.54 nM
[8]
  IC50: > 1000 nM

## Cc1cn(-c2cc(NC(=O)c3cc4cc(c3C)C#Cc3cnc5ccc(nn35)C(=O)NCCCCCCCCO4)cc(C(F)(F)F)c2)cn1
[1]
  IC50: 32.2 nM
[2]
  IC50: 63.4 nM
[4]
  IC50: 27.8 nM
[5]
  IC50: 59.7 nM
[6]
  IC50: 7.5 nM
[7]
  IC50: 8.21 nM
[8]
  IC50: > 1000 nM

## Cc1cn(-c2cc(NC(=O)c3cc4cc(c3C)C#Cc3cnc5ccc(nn35)NCCC(=O)NCCCCO4)cc(C(F)(F)F)c2)cn1
[2]
  IC50: 21 nM
[6]
  IC50: 5.29 nM
[8]
  IC50: 85.2 nM

## C[C@@H]1CCc2ncc(F)cc2[C@H]2CCCN2c2ccn3ncc(c3n2)C(=O)N1 [SELITRECTINIB]
[11]
  IC50: > 1000 nM
[12]
  IC50: 17.2 nM
[1]
  IC50: 1.36 nM
[13]
  IC50: 41.1 nM
[14]
  IC50: 42 nM
[9]
  IC50: 26.1 nM
[10]
  IC50: 31.5 nM
[15]
  IC50: 2.32 nM
[16]
  IC50: 7.48 nM
[17]
  IC50: 5.08 nM
[18]
  IC50: 11 nM
[3]
  IC50: 10.3 nM
[19]
  IC50: 3.39 nM
[20]
  IC50: 30.7 nM
[5]
  IC50: 1.35 nM
[7]
  IC50: 22.2 nM
[21]
  IC50: 423 nM
[22]
  IC50: 35.8 nM
[23]
  IC50: 26.4 nM
[24]
  IC50: > 1000 nM
[25]
  IC50: 4.15 nM
[26]
  IC50: 37 nM
[27]
  IC50: 48.2 nM
